Structures can show the parent of a compound that is named as a salt.

For the first assay, the system named is mice. As to the kind of experiment: Dark Avoidance Assay (reversal of scopolamine induced memory deficit). The assay is classed as in vivo. As to conditions: Dose 0.63 mg/kg of body weight, s.c; mice, retest after 24 hours. The method, then:
This utility can also be ascertained by determining the ability of these compounds to restore cholinergically deficient memory in the Dark Avoidance Assay. In this assay mice are tested for their ability to remember an unpleasant stimulus for a period of 24 hours. A mouse is placed in a chamber that contains a dark compartment; a strong incadescent light drives it to the dark compartment, where an electric shock is administered through metal plates on the floor. The animal is removed from the testing apparatus and tested again, 24 hours later, for the ability to remember the electric shock.
If scopolamine, an anticholinergic that is known to cause memory impairment, is administered before an animal's initial exposure to the test chamber, the animal re-enters the dark compartment shortly after being placed in the test chamber 24 hours later. This effect of scopolamine is blocked by an active test compound, resulting in a greater interval before re-entry into the dark compartment.
The results for an active compound are expressed as the percent of a group of animals in which the effect of scopolamine is blocked, as manifested by an increased interval between being placed in the test chamber and re-entering the dark compartment.
As to `CCCCCC(=O)OC1CCc2nc3ccccc3c(N)c2C1.O=C(O)/C=C/C(=O)O` (stereo not shown) [2-Hexanoyloxy-1,2,3,4-tetrahydro-9-acridinamine, fumarate], the “% of Animals with Scopolamine Induced Memory Deficit Reversal” value (“% of Animals” for short) was determined as 25%.

Still in this assay, the particulars now being: Dose 5.0 mg/kg of body weight, s.c; mice, retest after 24 hours.
With `CC(=O)OC1CCc2nc3ccccc3c(N)c2C1` (stereo not shown) [2-Acetoxy-1,2,3,4-tetrahydro-9-acridinamine], the “% of Animals” value is 29%.

For the compound `CCC(=O)OC1CCc2nc3ccccc3c(N)c2C1` (stereo not shown) [2-Propionyloxy-1,2,3,4-tetrahydro-9-acridinamine, fumarate hemihydrate], the “% of Animals” value was 13%.

For `Nc1c2c(nc3ccccc13)CCC(O)C2.O=C(O)/C=C\C(=O)O` (stereo not shown) [9-Amino-1,2,3,4-tetrahydroacridin-2-ol, maleate], the “% of Animals” value is 20%.

Still in this assay, the particulars now being: mouse, in vivo, 0.31 mg/kg.
Take `CNC(=O)Oc1ccc2c(c1)[C@]1(C)CCN(C)[C@@H]1N2C` [Physostigmine, reference compound]: the “% of Animals” value is reported as 20%.

In a further assay the target is acetylcholinesterase (Homo sapiens, UniProt P22303). As to the kind of experiment: biochemical.
acetylcholinesterase, sequence (P22303 32-614): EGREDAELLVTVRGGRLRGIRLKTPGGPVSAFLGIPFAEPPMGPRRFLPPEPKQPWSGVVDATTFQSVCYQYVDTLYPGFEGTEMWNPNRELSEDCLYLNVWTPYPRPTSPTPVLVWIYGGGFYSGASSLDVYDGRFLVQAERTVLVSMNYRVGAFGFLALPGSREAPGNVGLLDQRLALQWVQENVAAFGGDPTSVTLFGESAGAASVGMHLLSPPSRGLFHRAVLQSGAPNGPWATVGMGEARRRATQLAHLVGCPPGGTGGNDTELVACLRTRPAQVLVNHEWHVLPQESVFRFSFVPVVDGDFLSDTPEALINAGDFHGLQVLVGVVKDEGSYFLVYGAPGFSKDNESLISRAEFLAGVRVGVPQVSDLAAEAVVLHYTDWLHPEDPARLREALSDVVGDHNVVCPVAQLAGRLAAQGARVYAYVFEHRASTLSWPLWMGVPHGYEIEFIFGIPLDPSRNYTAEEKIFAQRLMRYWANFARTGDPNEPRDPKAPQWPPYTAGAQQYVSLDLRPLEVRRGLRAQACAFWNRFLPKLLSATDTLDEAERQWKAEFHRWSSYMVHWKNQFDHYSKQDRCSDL
Settings: not given
On the procedure:
The ability to inhibit acetylchlinesterase was determined by the photometric method of Ellman et al., Biochem. pharmacol.
The IC50 is the point on the concentration scale where inhibition reaches its midpoint. With `Nc1c2c(nc3ccccc13)CCC(OCc1ccccc1)C2` (stereo not shown) [2-Benzyloxy-1,2,3,4-tetrahydro-9-acridinamine], the IC50 is greater than 1000 µM.

On to `CCCC(=O)OC1CCc2nc3ccccc3c(N)c2C1` (stereo not shown) [2-Butyryloxy-1,2,3,4-tetrahydro-9-acridinamine, fumarate], for which the IC50 was determined as 4.8 µM.

`CCCCCCCCCC(=O)OC1CCc2nc3ccccc3c(N)c2C1` (stereo not shown) [2-Decanoyloxy-1,2,3,4-tetrahydro-9-acridinamine, fumarate] returned an IC50 greater than 1000 µM.

The compound `CCCCCCCCCCCC(=O)OC1CCc2nc3ccccc3c(N)c2C1` (stereo not shown) [2-Lauroyloxy-1,2,3,4-tetrahydro-9-acridinamine] displayed an IC50 of 160 µM.

Regarding `CCCCCCCC(=O)OC1CCc2nc3ccccc3c(N)c2C1` (stereo not shown) [2-Octanoyloxy-1,2,3,4-tetrahydro-9-acridinamine, fumarate], the IC50 was found to be 23 µM.

With `CCCCC(=O)OC1CCc2nc3ccccc3c(N)c2C1` (stereo not shown) [2-Valeryloxy-1,2,3,4-tetrahydro-9-acridinamine, fumarate], the midpoint of inhibition, the IC50, lay at 12 µM.

As for `Nc1c2c(nc3ccccc13)C(OCc1ccccc1)CCC2` (stereo not shown) [4-Benzyloxy-1,2,3,4-tetrahydro-9-acridinamine], the midpoint of inhibition, the IC50, lay at 820 µM.

The same assay, now with this note: Acetylcholinesterase Inhibition; read-out: IC50 (molar conc.).
In the case of `CC(=O)OC1CCc2nc3ccccc3c(N)c2C1` (stereo not shown) [2-Acetoxy-1,2,3,4-tetrahydro-9-acridinamine], the IC50 came out at 6.5 µM.

On to `CCCCCCC(=O)OC1CCc2nc3ccccc3c(N)c2C1` (stereo not shown) [2-Heptanoyloxy-1,2,3,4-tetrahydro-9-acridinamine, fumarate], for which the IC50 came to 31 µM.

With `CCCCCC(=O)OC1CCc2nc3ccccc3c(N)c2C1.O=C(O)/C=C/C(=O)O` (stereo not shown) [2-Hexanoyloxy-1,2,3,4-tetrahydro-9-acridinamine, fumarate], the half-maximal inhibitory concentration (IC50) was 19 µM.

For the compound `CN(C)C=Nc1c2c(nc3ccccc13)CCC(O)C2` (stereo not shown) [2-Hydroxy-N-(dimethylaminomethylene)-1,2,3,4-tetrahydro-9-acridinamine], the IC50 was greater than 1000 µM.

Regarding `CCCCCCCCC(=O)OC1CCc2nc3ccccc3c(N)c2C1` (stereo not shown) [2-Nonanoyloxy-1,2,3,4-tetrahydro-9-acridinamine, fumarate], the IC50 was greater than 1000 µM.

Consider `Nc1c2c(nc3ccccc13)CCC(O)C2.O=C(O)/C=C\C(=O)O` (stereo not shown) [9-Amino-1,2,3,4-tetrahydroacridin-2-ol, maleate], for which the IC50 was found to be 5.3 µM.

Regarding `Nc1c2c(nc3ccccc13)C(O)CCC2` (stereo not shown) [9-Amino-1,2,3,4-tetrahydroacridinamin-4-ol, hemifumarate], the IC50 was determined as 1.9 µM.

For the origin of these results see patent publication EP0369388B1, “Hydroxy-1,2,3,4-tetrahydroaminoacridines, a process for their preparation and their use as medicaments” (HOECHST-ROUSSEL PHARMACEUTICALS INCORPORATED, priority 1988, dated 1990).
